Test results from patent publication US10946074B2, “GLP-1 derivatives and uses thereof” (Novo Nordisk A/S, priority 2016, dated 2021).
Starred links: 1 amine or outer side, 2 acyl side, 3 side chain; linkers in the order of their positions; H or OH if unused. Residues, ends and D or L forms follow the SMILES beside them. Groups on a side chain read outwards from the residue. *: point of attachment. γGlu = O=C(O)[C@H](CCC(=O)[*:2])N[*:1]; C14 diacid = O=C(O)CCCCCCCCCCCCC(=O)*; AEEA = NCCOCCOCC(=O)O

What was measured:
human GLP-1 receptor [1] = target: T1, human GLP-1 receptor (Homo sapiens, UniProt P43220); assay: In vitro potency, CRE luciferase reporter gene assay in BHK cells expressing the human GLP-1 receptor; type: cell-based; details: 3 h, 0% HSA, average of at least three replicates
T1 construct: expressed in transfected cells; host or cells: membranes of BHK cells (parent BHKTS13), clone FCW467-12A
Method: When assay incubation is completed the luciferase substrate (luciferin) is added and the enzyme converts luciferin to oxyluciferin to produce bioluminescence. The luminescence is measured as the readout for the assay.
The cells were cultured at 5% CO2 in cell culture medium. They were aliquoted and stored in liquid nitrogen. Before each assay an aliquot was taken up and washed twice in PBS before being suspended at the desired concentration in the assay specific buffer. For 96-well plates the suspension was made to give a final concentration of 5×10^3 cells/well.
Assay medium consisted of DMEM w/o phenol red, 10 mM Hepes and 1× Glutamax. The assay buffer consisted of 2% w/v ovalbumin and 0.2% v/v Pluronic F-68 in assay medium.
3) Cells were counted and adjusted to 5×10^3 cells/50 μl (1×10^5 cells/ml) in assay medium. A 50 μl aliquot of cells was transferred to each well in the assay plate.
4) Stocks of the test compounds and reference compounds were diluted to a concentration of 0.2 μM in assay buffer. […] Compounds were tested at the following final concentrations: 1×10^−7 M, 1×10^−8 M; 1×10^−9 M, 1×10^−10 M, 1×10^−11 M, 1×10^−12 M, 1×10^−13 M, and 1×10^−14 M. 6) The assay plate was incubated for 3 h in a 5% CO2 incubator at 37° C. […] 8) A 100 μl aliquot of steadylite plus reagent was added to each well of the assay plate. 9) Each assay plate was covered with aluminum foil to protect it from light and shaken for 30 min at room temperature. 10) Each assay plate was read in a BioTek Synergy 2 Multi-Mode Reader. Calculations and Results
The data from the BioTek Synergy 2 Multi-Mode Reader were transferred to GraphPad Prism software. The software performs a non-linear regression (log(agonist) vs. response (three parameters)).
A minimum of three replicates were measured for each sample. The reported EC50 values are averages of the measured values for each compound.

human GLP-1 receptor [2] = target: T1, human GLP-1 receptor; assay: GLP-1 receptor binding, competitive binding assay with 125I-GLP-1 on isolated membranes (SPA); details: high HSA (2.0% (w/v) final assay concentration); read-out: GLP-1 receptor binding High HSA IC50
Method: The receptor binding is reported as the concentration at which half of the labelled ligand is displaced from the receptor, the IC50 value.
Buffer 1 consisted of 20 mM Na-HEPES plus 10 mM EDTA and pH was adjusted to 7.4. Buffer 2 consisted of 20 mM Na-HEPES plus 0.1 mM EDTA and pH was adjusted to 7.4. Assay buffer consisted of 50 mM HEPES supplemented with 5 mM EGTA, 5 mM MgCl2, 0.005% w/v Tween 20 and pH was adjusted to 7.4. An 8% albumin stock consisted of HSA dissolved at 8% (w/v) in assay buffer. An 0.02% albumin stock consisted of HSA dissolved at 0.02% (w/v) in assay buffer.
To make a membrane preparation the cells were grown to approximately 80% confluence. The cells were washed twice in phosphate-buffered saline and harvested. The cells were pelleted using a brief centrifugation and the cell pellet was kept on ice. The cell pellet was homogenised with ULTRA-THURRAX™ dispersing instrument for 20-30 seconds in a suitable amount of buffer 1 (e.g., 10 ml). The homogenate was centrifuged for 15 minutes. The pellet was re-suspended (homogenised) in 10 ml buffer 2 and centrifuged. This step was repeated once more. The resulting pellet was re-suspended in buffer 2 and the protein concentration was determined. The membranes were aliquoted and stored at minus 80° C.
For the receptor binding assay in the presence of low HSA (0.005% (w/v)) 50 μl of the assay buffer was added to each well of an assay plate. Assay continued with step 3.
For the receptor binding assay in the presence of high HSA (2% (w/v)) 50 μl of the 8% (w/v) albumin stock was added to each well of an assay plate. Assay continued with step 3.
Cell membrane aliquots were thawed and diluted to their working concentration. Fifty μl were added to each well in the assay plate.
WGA SPA beads were suspended in assay buffer at 20 mg/ml. The suspension was diluted to 10 mg/ml in assay buffer just prior to addition to the assay plate. Fifty μl were added to each well in the assay plate.
A 25 μl aliquot was reserved for measuring total counts/well.
The assay plate was incubated for 2 h at 30° C.
The assay plate was centrifuged for 10 min.
The assay plate was read in a Packard TopCount NXT instrument.
Individual replicates were analysed using non-linear regression in GraphPad Prism. IC50 values were calculated by the software and reported in nM. A minimum of two replicates was measured for each sample. The reported values are averages of all of the measured values for each compound.

DPP-IV = target: T2, DPP-IV (Homo sapiens, UniProt P27487); assay: In vitro DPP-IV stability (incubation with DPP-IV, LC-MS of non-degraded peptide); type: in vitro ADME; details: 10 μM peptide, DPP-IV 2 μg/ml, 37° C., samples up to 180 min
T2 construct: purchased R & D systems
T2 sequence (P27487 whole entry, species assumed): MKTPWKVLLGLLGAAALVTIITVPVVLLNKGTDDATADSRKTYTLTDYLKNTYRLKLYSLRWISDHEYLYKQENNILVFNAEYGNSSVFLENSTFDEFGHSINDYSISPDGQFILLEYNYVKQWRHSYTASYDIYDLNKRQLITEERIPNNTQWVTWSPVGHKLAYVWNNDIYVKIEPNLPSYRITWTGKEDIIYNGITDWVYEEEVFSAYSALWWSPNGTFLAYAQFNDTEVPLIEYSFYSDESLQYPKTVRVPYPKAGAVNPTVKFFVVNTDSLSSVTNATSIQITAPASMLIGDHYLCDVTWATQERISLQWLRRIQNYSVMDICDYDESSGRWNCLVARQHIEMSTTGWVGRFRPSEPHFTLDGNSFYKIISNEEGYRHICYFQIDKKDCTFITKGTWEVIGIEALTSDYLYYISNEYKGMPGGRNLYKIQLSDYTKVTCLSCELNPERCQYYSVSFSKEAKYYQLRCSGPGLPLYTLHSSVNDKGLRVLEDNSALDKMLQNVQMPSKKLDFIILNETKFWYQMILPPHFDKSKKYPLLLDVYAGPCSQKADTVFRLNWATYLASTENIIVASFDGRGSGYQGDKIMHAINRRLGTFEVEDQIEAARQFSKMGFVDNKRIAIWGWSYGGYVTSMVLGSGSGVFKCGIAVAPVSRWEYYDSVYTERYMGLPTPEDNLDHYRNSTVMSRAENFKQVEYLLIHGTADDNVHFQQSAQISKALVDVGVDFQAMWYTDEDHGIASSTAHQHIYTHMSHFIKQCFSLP
Method: The peptides are incubated in vitro in buffer with DPP-IV, samples are taken at regular intervals, the DPP-IV enzyme is inactivated to stop further degradation, and the amount of non-degraded peptide in the samples is determined using LC-MS.
Buffer A is a HEPES buffer (Gibco by Life Science, NY, USA) to which 0.005% (v/v) Tween20® Sigma-Aldrich, USA) and 0.001% (w/v) BSA (Sigma-Aldrich, USA) has been added and pH was adjusted to 7.4.
LC-MS was performed on a setup consisting of Waters Acquity UPLC system and Maxis 4G from Bruker Daltonics. […] Gradient: Linear 5%-70% mobile phase B during 8 min at 0.3 ml/min. MS was conducted in positive ionisation mode by electrospray ionisation from m/z ionisation mode and scan from m/z 300-1800.
The reactions were terminated by addition of 6 volumes of ethanol containing 1% (v/v) TFA (Biosolve BV, The Netherlands) and internal standard. The samples were analysed by LC-MS for the respective non-degraded peptide. Data was plotted according to 1st order kinetics (by GraphPad Prism) and the half-lives (T1/2) were calculated by the software and reported in minutes.

T1 sequence (P43220 24-463): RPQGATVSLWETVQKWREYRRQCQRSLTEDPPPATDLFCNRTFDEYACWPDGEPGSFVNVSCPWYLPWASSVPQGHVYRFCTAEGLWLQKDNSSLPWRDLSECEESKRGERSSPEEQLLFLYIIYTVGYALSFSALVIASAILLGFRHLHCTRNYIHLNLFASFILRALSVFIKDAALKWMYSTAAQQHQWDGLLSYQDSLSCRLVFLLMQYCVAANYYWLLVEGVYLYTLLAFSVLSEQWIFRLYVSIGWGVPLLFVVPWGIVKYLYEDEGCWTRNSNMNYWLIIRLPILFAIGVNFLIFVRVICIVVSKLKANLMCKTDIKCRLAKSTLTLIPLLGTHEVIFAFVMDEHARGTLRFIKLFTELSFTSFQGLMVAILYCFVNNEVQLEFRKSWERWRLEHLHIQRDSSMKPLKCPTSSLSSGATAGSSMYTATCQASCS

| EC50 (human GLP-1 receptor [1]) | IC50 (human GLP-1 receptor [2]) | degradation by DPP-IV in vitro (in words) (DPP-IV) | Compound |
| --- | --- | --- | --- |
| 0.0056 nM | 71 nM | – | CC[C@H](C)[C@H](NC(=O)[C@H](Cc1ccccc1)NC(=O)[C@H](CCC(=O)O)NC(=O)[C@H](CCCNC(=N)N)NC(=O)[C@H](C)NC(=O)[C@H](C)NC(=O)[C@H](CCC(N)=O)NC(=O)[C@H](CCC(=O)O)NC(=O)[C@H](CCC(=O)O)NC(=O)[C@H](CC(C)C)NC(=O)[C@H](Cc1ccc(O)cc1)NC(=O)[C@H](CO)NC(=O)[C@H](CO)NC(=O)[C@@H](NC(=O)[C@H](CC(=O)O)NC(=O)[C@H](CO)NC(=O)[C@@H](NC(=O)[C@H](Cc1ccccc1)NC(=O)[C@@H](NC(=O)CNC(=O)[C@H](CCC(=O)O)NC(=O)[C@H](Cc1c[nH]c2ccccc12)NC(=O)[C@@H](N)Cc1c[nH]cn1)[C@@H](C)O)[C@@H](C)O)C(C)C)C(=O)N[C@@H](C)C(=O)N[C@@H](Cc1c[nH]c2ccccc12)C(=O)N[C@@H](CC(C)C)C(=O)N[C@H](C(=O)N[C@@H](CCCNC(=N)N)C(=O)NCC(=O)N[C@@H](CCCCNC(=O)COCCOCCNC(=O)COCCOCCNC(=O)COCCOCCNC(=O)COCCOCCNC(=O)CC[C@H](NC(=O)CCCCCCCCCCCCC(=O)O)C(=O)O)C(=O)N[C@@H](CCCCNC(=O)COCCOCCNC(=O)COCCOCCNC(=O)COCCOCCNC(=O)COCCOCCNC(=O)CC[C@H](NC(=O)CCCCCCCCCCCCC(=O)O)C(=O)O)C(=O)O)C(C)C [Example 7] (H-HWEGTFTSDVSSYLEEQAAREFIAWLVRGK([AEEA-AEEA-AEEA-AEEA-γGlu-C14 diacid])K([AEEA-AEEA-AEEA-AEEA-γGlu-C14 diacid])-OH; N-terminus and C-terminus assumed) |
| – | – | no degradation at all was observed | CC[C@H](C)[C@H](NC(=O)[C@H](Cc1ccccc1)NC(=O)[C@H](CCC(=O)O)NC(=O)[C@H](CCCCN)NC(=O)[C@H](C)NC(=O)[C@H](C)NC(=O)[C@H](CCC(N)=O)NC(=O)CNC(=O)[C@H](CCC(=O)O)NC(=O)[C@H](CC(C)C)NC(=O)[C@H](Cc1ccc(O)cc1)NC(=O)[C@H](CO)NC(=O)[C@H](CO)NC(=O)[C@@H](NC(=O)[C@H](CC(=O)O)NC(=O)[C@H](CO)NC(=O)[C@@H](NC(=O)[C@H](Cc1ccccc1)NC(=O)[C@@H](NC(=O)CNC(=O)[C@H](CCC(=O)O)NC(=O)[C@H](Cc1c[nH]c2ccccc12)NC(=O)[C@@H](N)Cc1c[nH]cn1)[C@@H](C)O)[C@@H](C)O)C(C)C)C(=O)N[C@@H](C)C(=O)N[C@@H](Cc1c[nH]c2ccccc12)C(=O)N[C@@H](CC(C)C)C(=O)N[C@H](C(=O)N[C@@H](CCCCN)C(=O)NCC(=O)N[C@@H](CCCNC(=N)N)C(=O)NCC(=O)O)C(C)C [Example D, [Trp8]-GLP-1-(7-37)-Peptide] |
